The source of these data is ChEMBL document CHEMBL1641362, “Inhibition of P-glycoprotein-mediated Multidrug Resistance (MDR) by N,N-bis(cyclohexanol)amine aryl esters: further restriction of molecular flexibility maintains high potency and efficacy” (Bioorg Med Chem Lett, 2011).

This assay in a line: Inhibition of Pgp-mediated multidrug resistance in doxorubicin-resistant human K562 cells assessed as drug level required for 50% increase in nuclear concentration of pirarubicin by fluorescence assay. In kind it is cell-based. Particulars: read-out: I50.
For `COc1cc(CCC(=O)O[C@H]2CC[C@@H](N(C)[C@H]3CC[C@H](OC(=O)c4cc(OC)c(OC)c(OC)c4)CC3)CC2)cc(OC)c1OC` (mixture of isomers), the IC50 amounted to 350 nM.

On to `COc1cc(CCC(=O)O[C@H]2CC[C@H](N(C)[C@H]3CC[C@@H](OC(=O)c4cc(OC)c(OC)c(OC)c4)CC3)CC2)cc(OC)c1OC` (mixture of isomers), for which the IC50 turned out to be 630 nM.

For `COc1cc(C#CC(=O)O[C@H]2CC[C@H](N(C)[C@H]3CC[C@@H](OC(=O)c4cc(OC)c(OC)c(OC)c4)CC3)CC2)cc(OC)c1OC` (mixture of isomers), the IC50 was 80 nM.

Regarding `COc1cc(CCC(=O)O[C@H]2CC[C@H](N(C)[C@H]3CC[C@H](OC(=O)c4cc(OC)c(OC)c(OC)c4)CC3)CC2)cc(OC)c1OC` (mixture of isomers), the IC50 was 610 nM.

On to `COc1cc(C#CC(=O)O[C@H]2CC[C@@H](N(C)[C@H]3CC[C@@H](OC(=O)c4cc(OC)c(OC)c(OC)c4)CC3)CC2)cc(OC)c1OC` (mixture of isomers), for which the IC50 is 70 nM.

Turning to `COc1cc(C#CC(=O)O[C@H]2CC[C@@H](N(C)[C@H]3CC[C@H](OC(=O)c4cc(OC)c(OC)c(OC)c4)CC3)CC2)cc(OC)c1OC` (mixture of isomers), the IC50 is 20 nM.

Regarding `COc1cc(C#CC(=O)O[C@H]2CC[C@H](N(C)[C@H]3CC[C@H](OC(=O)c4cc(OC)c(OC)c(OC)c4)CC3)CC2)cc(OC)c1OC`, the IC50 amounted to 70 nM.

For `COc1cc(CCC(=O)O[C@H]2CC[C@@H](N(C)[C@H]3CC[C@@H](OC(=O)c4cc(OC)c(OC)c(OC)c4)CC3)CC2)cc(OC)c1OC`, the IC50 was determined as 1100 nM.

Turning to `COc1cc(/C=C/C(=O)O[C@H]2CC[C@H](N(C)[C@H]3CC[C@@H](OC(=O)c4cc(OC)c(OC)c(OC)c4)CC3)CC2)cc(OC)c1OC` (mixture of isomers), the IC50 came to 92 nM.
